# Experimental data taken from PMC12427625, “Heterochannels Kv(1.1-1.2)2 and Their Interactions with Pore Blockers” (Cells, 2025).
# Where two headings read alike, the source gives them in different places. Bridge positions count the residues as written; N and C are the ends. Peptide text beside a SMILES is read from it.
# Tests used:
# [1] = biological target: T1, human heterochannels Kv(1.1-1.2)2 (Homo sapiens, UniProt P16389+Q09470, S369T/S371T); assay: Competitive binding of peptide and HgTx-G to Kv(1.1-1.2)2 heterochannels; conditions: for Kd: Kv(1.1-1.2)2 formed by K-Kv1.1-1.2, competitive displacement of 0.5 nM HgTx-G, complete medium, 1 h, Cheng-Prusoff, mean ± SEM of three independent experiments, read-out: apparent dissociation constant (Kap); for fold lower activity compared to Ce1: Kv(1.1-1.2)2, vs Ce1; for affinity for Kv(1.1-1.2)2 in words: Kv(1.1-1.2)2, competitive binding with HgTx-G; for displacement of HgTx-G: 0.5 nM HgTx-G, 10 nM HgTx1 (Figure 1)
# T1 construct: expressed in transfected cells; host or cells: mouse neuroblastoma Neuro-2a cells transfected with pmKate2-KCNA1-KCNA2
# Excerpt: To construct the gene encoding a fluorescent concatenated dimer mKate2-Kv1.1-Kv1.2 (K-Kv1.1-1.2), a cloning strategy was used, in which the C-terminus of the human Kv1.1 α-subunit was fused end-to-end to the N-terminus of the human Kv1.2 α-subunit via a short KL linker that corresponds to the HindIII restriction site. Here, we followed the design of the α-subunit concatemers proposed earlier. The previously obtained plasmids pmKate2-KCNA1 and pmKate2-KCNA2, which coded for mKate2-Kv1.1 (K-Kv1.1) and mKate2-Kv1.2 (K-Kv1.2) fusion proteins, were used for cloning. In these proteins, both human α-subunits Kv1.1 and Kv1.2 are N-terminally tagged with the red fluorescent protein mKate2 and harbor single mutations (S369T in Kv1.1, and S371T in Kv1.2) that improve the surface presentation of the homotetrameric channels. At first, pmKate2-KCNA1stopless was generated by amplification of the KCNA1 gene lacking TAA stop codon in a polymerase chain reaction (PCR) using a pair of oligonucleotide primers Kcna1-f1 (5′-[…]-3′) and Kcna1-Stop-r1 (5′-[…]-3′; BglII and HindIII sites are underlined). The obtained DNA fragment was hydrolyzed by BglII/HindIII restriction endonucleases and cloned into pmKate2-KCNA1 plasmid to substitute KCNA1 for KCNA1stopless. The obtained plasmid pmKate2-KCNA1stopless was further used as a vector to produce the KCNA1-KCNA2 dimer. For this, the KCNA2 gene was amplified in PCR using primers Kcna2-Hind-f1 (5′- […]-3′) and Kcna2-Sal-r1 ([…]-3′; HindIII, SalGI, and PstI sites are underlined; TAA stop codon is marked in bold) and cloned into HindIII/SalI sites of pmKate2-KCNA1stopless. The resulting pmKate2-KCNA1-KCNA2 plasmid encoded K-Kv1.1-1.2.
# To analyze the binding of HgTx-G to heterochannels, HgTx-G (0.032–2 nM) was added to cells in the complete medium for 1 h. In the experiments with competitive binding, HgTx-G (0.5 nM) was added to cells, together with the studied peptide ([…]; 1.25–100 nM ChTx; 0.5–20 nM AgTx2, 2–10 nM MeKTx11-1, 0.063–1 nM Ce1, 0.063–1 nM Ce4, or 1 µM ScyTx), and incubated in the complete medium for 1 h.
# Confocal microscopy measurements were carried out with the SP2 laser scanning confocal microscope (Leica Microsystems GmbH, Wetzlar, Germany), using the 63× water-immersion objective (HCX PL APO, NA = 1.2). Axial and lateral resolutions were 0.6 and 0.2 µm.
# Fluorescence of proteins labeled with mKate2 was excited at 561 nm and detected in the 680–800 nm region. Fluorescence of HgTx-G was excited at 488 nm and recorded in the 495–540 nm region. The fluorescent probes of various cellular organelles were excited at 488 nm and detected in the 495–540 nm region.
# Quantitative analysis of HgTx-G interaction with heterochannels was performed following the procedure developed previously. Briefly, confocal images of cells were used to calculate the ratio of the fluorescence intensity of HgTx-G bound to heterochannels to the fluorescence intensity of membrane-embedded heterochannels for each measured cell. This ratio was averaged over a sample of measured cells (20–30 cells) to obtain the Rav value and its standard deviation.
# To characterize the affinity of unlabeled peptide for heterochannels, the competitive binding of this peptide and HgTx-G to heterochannels was measured at the constant concentration of HgTx-G (L) and increasing concentration (C) of the peptide. Rav data were calculated, plotted as a function of C, and fitted with the following equation:Rav(C) = Rav0/(1 + C/DC50)(2) where DC50 is the peptide concentration displacing 50% of HgTx-G from the complex with heterochannels, and Rav0 is Rav at C = 0.
# Further, the Cheng–Prusoff equation was used to calculate the apparent dissociation constant (Kap) of the complex between the studied peptide and heterochannels:Kap = DC50/(1 + L/Kd)(3)
# Three independent experiments were performed, and data on Kap were averaged and presented as mean ± SEM.
# Kv1.2 [2] = conditions: cited from earlier work; for Kd: Kv1.2, ref [35], read-out: Kap
# Excerpt: (§1) These properties were also similar to those reported by other investigators for the corresponding homotetrameric channels, Kv1.1 and Kv1.2. It was also shown that the Kd of the complexes between HgTx-G, a high-affinity fluorescent ligand for the Kv1.1 and Kv1.2 channels, and ...
# Kv1.1 [3] = conditions: cited from earlier work; for Kd: Kv1.1, read-out: Kap
# Excerpt: as §1
# Kv1.2 [4] = assay: Competitive binding, homotetrameric Kv1.2 channel (earlier data); conditions: Kv1.2 vs Kv1.1 (Table 2)
# Kv1.3 [5] = assay: Ce4 activity on Kv1.3 (earlier data); conditions: Table 2 and data published previously [35]
# Kv1.1 [6] = assay: Competitive binding, homotetrameric Kv1.1 channel (earlier data); conditions: Table 2 and data published previously [35]
# Kv1.3 [7] = system: Kv1.3; set-up: method as in PMID 9446567; conditions: HEK-293 cells; ref [14]; cited from earlier work
# Kv1.1 [8] = system: Kv1.1; set-up: method as in PMID 9446567; conditions: HEK-293 cells; ref [14]; cited from earlier work
# Kv1.6 = system: Kv1.6; set-up: method as in PMID 9446567; conditions: HEK-293 cells; ref [14]; cited from earlier work
# Kv1.2 [9] = system: Kv1.2; set-up: method as in PMID 9446567; conditions: HEK-293 cells; ref [14]; cited from earlier work
# T1 sequence (Q09470 whole entry S369T): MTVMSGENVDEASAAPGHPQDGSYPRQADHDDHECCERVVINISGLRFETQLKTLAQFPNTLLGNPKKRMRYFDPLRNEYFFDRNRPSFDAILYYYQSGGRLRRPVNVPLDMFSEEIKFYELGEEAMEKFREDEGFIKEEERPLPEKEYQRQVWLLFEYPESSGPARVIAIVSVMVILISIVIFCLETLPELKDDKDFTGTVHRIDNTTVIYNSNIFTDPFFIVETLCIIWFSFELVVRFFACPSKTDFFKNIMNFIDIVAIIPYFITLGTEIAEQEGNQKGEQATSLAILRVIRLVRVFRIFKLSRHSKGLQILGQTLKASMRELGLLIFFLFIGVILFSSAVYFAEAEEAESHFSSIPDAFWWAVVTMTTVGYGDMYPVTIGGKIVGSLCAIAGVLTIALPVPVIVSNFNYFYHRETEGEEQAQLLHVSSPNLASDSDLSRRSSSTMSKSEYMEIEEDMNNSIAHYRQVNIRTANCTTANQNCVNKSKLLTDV
# T1 sequence (P16389 2-499 S371T): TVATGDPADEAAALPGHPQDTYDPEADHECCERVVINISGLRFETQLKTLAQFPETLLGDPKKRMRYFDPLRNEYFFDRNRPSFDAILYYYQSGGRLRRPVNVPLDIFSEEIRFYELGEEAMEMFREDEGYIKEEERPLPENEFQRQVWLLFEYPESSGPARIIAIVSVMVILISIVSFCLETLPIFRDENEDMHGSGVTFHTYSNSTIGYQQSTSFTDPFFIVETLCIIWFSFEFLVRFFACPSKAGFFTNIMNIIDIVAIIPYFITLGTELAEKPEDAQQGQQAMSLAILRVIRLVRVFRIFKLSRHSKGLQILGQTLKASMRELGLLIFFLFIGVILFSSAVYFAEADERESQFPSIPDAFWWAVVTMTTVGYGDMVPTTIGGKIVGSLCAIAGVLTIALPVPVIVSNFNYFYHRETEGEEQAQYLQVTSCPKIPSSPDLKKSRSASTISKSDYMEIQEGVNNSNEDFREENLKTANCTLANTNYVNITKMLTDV
Compound,Kd [1],fold lower activity compared to Ce1 [1],Kd (Kv1.2 [2]),Kd (Kv1.1 [3]; ref [35]),activity against Kv1.2 compared to Kv1.1 (Kv1.2 [4]),selectivity: activity against Kv1.2 and Kv(1.1-1.2)2 higher than against Kv1.3 (Kv1.3 [5]),selectivity: activity against Kv1.2 and Kv(1.1-1.2)2 higher than against Kv1.1 (Kv1.1 [6]),affinity for Kv(1.1-1.2)2 in words [1],displacement of HgTx-G ([1]; channels formed by K-Kv1.1-1.2),displacement of HgTx-G ([1]; channels formed by K-Kv1.2-1.1),"displacement of HgTx-G from the complexes (Kv1.2 [2]; K-Kv1.2-1.2 and K-Kv1.2, ref [28],[29])","displacement of HgTx-G from the complexes (Kv1.1 [3]; K-Kv1.1-1.1 and K-Kv1.1, ref [28],[29])",Kd (Kv1.1 [3]; ref [34]),"affinity, 86Rb+ flux inhibition (Kv1.3 [7])","affinity, 86Rb+ flux inhibition (Kv1.1 [8])","affinity, 86Rb+ flux inhibition (Kv1.6)","affinity, 86Rb+ flux inhibition (Kv1.2 [9])"
"CC[C@H](C)[C@@H]1NC(=O)[C@@H]2CSSC[C@@H]3NC(=O)[C@H](CCCCN)NC(=O)[C@H](CCCNC(=N)N)NC(=O)[C@H](CC(N)=O)NC(=O)[C@H](CCSC)NC(=O)[C@H](CSSC[C@H](NC(=O)[C@H](CO)NC(=O)[C@@H](NC(=O)[C@H](CC(N)=O)NC(=O)[C@@H](NC(=O)[C@@H]4CCCN4C(=O)[C@@H](NC(=O)CN)C(C)C)[C@@H](C)CC)C(C)C)C(=O)N[C@@H]([C@@H](C)O)C(=O)NCC(=O)N[C@@H](CO)C(=O)N4CCC[C@H]4C(=O)N[C@@H](CCC(N)=O)C(=O)N2)NC(=O)[C@H](CCCCN)NC(=O)CNC(=O)[C@H](Cc2ccccc2)NC(=O)[C@H](CCCNC(=N)N)NC(=O)[C@H](CCSC)NC(=O)CNC(=O)[C@H](C)NC(=O)[C@H](CC(=O)O)NC(=O)[C@H](CCCCN)NC(=O)[C@H](CSSC[C@@H](C(=O)N[C@H](C(=O)N2CCC[C@H]2C(=O)N[C@@H](CCCCN)C(=O)O)[C@@H](C)O)NC(=O)[C@H](Cc2c[nH]cn2)NC3=O)NC(=O)[C@@H]2CCCN2C(=O)[C@H](CCCCN)NC1=O [AgTx2, agitoxin 2]",0.25 ± 0.05 nM,,,,,,,,,,,,,,,,
"CC[C@H](C)[C@H](NC(=O)[C@H](CCCCN)NC(=O)[C@H](Cc1ccc(O)cc1)NC(=O)[C@@H]1CSSC[C@@H]2NC(=O)[C@@H]3CCCN3C(=O)[C@H](CC(C)C)NC(=O)[C@H](CC(C)C)NC(=O)[C@@H]3CSSC[C@H](NC(=O)[C@H](CCCCN)NC(=O)CNC(=O)[C@H](CC(N)=O)NC(=O)[C@H](CCSC)NC(=O)[C@H](CSSC[C@H](NC(=O)[C@H](CCCCN)NC(=O)[C@@H](NC(=O)[C@H](CC(N)=O)NC(=O)[C@@H](NC(=O)[C@@H](NC(=O)[C@@H](N)[C@@H](C)O)[C@@H](C)CC)[C@@H](C)CC)C(C)C)C(=O)N[C@@H]([C@@H](C)O)C(=O)N[C@@H](CO)C(=O)N4CCC[C@H]4C(=O)N[C@@H](CCCCN)C(=O)N[C@@H](CCC(N)=O)C(=O)N3)NC(=O)[C@H](CCCCN)NC(=O)[C@H](C)NC(=O)CNC(=O)[C@H](C)NC(=O)[C@H](Cc3c[nH]cn3)NC(=O)[C@H]([C@@H](C)CC)NC(=O)CNC(=O)[C@H](Cc3ccc(O)cc3)NC(=O)[C@H]([C@@H](C)CC)NC(=O)[C@H](CCC(=O)O)NC(=O)[C@H](CCCCN)NC2=O)C(=O)N[C@@H](CCCCN)C(=O)N1)C(=O)O [Ce4] (H-TIINVKCTSPKQCLLPCKEIYGIHAGAKCMNGKCKCYKI-OH; disulfide 7-29, 13-34, 17-36; N-terminus and C-terminus assumed)",,approximately threefold,0.03 ± 0.01 nM,> 300 nM,much higher activity against the Kv1.2 channel than against the Kv1.1 channel,> 1000 times,"more than 10,000 times",,,,,,,,,,
"CC[C@H](C)[C@@H]1NC(=O)CNC(=O)[C@H](Cc2ccccc2)NC(=O)[C@H](CCC(N)=O)NC(=O)[C@H](C)NC(=O)[C@H](CCCCN)NC(=O)[C@@H]2CSSC[C@@H](C(=O)N[C@@H](Cc3ccc(O)cc3)C(=O)N3CCC[C@H]3C(=O)N[C@@H](Cc3c[nH]cn3)C(=O)O)NC(=O)[C@H](CCCCN)NC(=O)[C@@H]3CSSC[C@H](NC(=O)[C@H](CCC(N)=O)NC(=O)[C@H](CCCCN)NC(=O)[C@@H]4CCCN4C(=O)[C@H](CO)NC(=O)[C@H]([C@@H](C)O)NC(=O)[C@@H](NC(=O)[C@H](CCCCN)NC(=O)[C@@H](NC(=O)[C@H](CC(=O)O)NC(=O)[C@@H](NC(=O)[C@@H](NC(=O)[C@@H](N)[C@@H](C)O)C(C)C)[C@@H](C)CC)C(C)C)CSSC[C@H](NC(=O)[C@H](CCCCN)NC(=O)[C@H](C)NC(=O)CNC(=O)[C@H](C)NC(=O)[C@H](CCCNC(=N)N)NC1=O)C(=O)N[C@@H](CCSC)C(=O)N[C@@H](CC(N)=O)C(=O)NCC(=O)N[C@@H](CCCCN)C(=O)N3)C(=O)N[C@@H](CC(C)C)C(=O)N1CCC[C@H]1C(=O)N1CCC[C@H]1C(=O)N2 [HgTx1, hongotoxin 1] (H-TVIDVKCTSPKQCLPPCKAQFGIRAGAKCMNGKCKCYPH-OH; disulfide 7-29, 13-34, 17-36; N-terminus and C-terminus assumed)",0.04 ± 0.01 nM,approximately threefold,0.02 ± 0.01 nM,,,,,very high affinity,displaced HgTx-G,displaced HgTx-G,displaced,displaced,0.03 ± 0.02 nM,subnanomolar,subnanomolar,nanomolar,subnanomolar
"CC[C@H](C)[C@H](NC(=O)[C@@H](NC(=O)[C@@H](N)[C@@H](C)O)C(C)C)C(=O)N[C@@H](CC(N)=O)C(=O)N[C@H](C(=O)N[C@@H](CCCCN)C(=O)N[C@H]1CSSC[C@@H]2NC(=O)[C@H](CCCCN)NC(=O)[C@H](C)NC(=O)CNC(=O)[C@H](C)NC(=O)[C@H](Cc3c[nH]cn3)NC(=O)[C@@H]3CCCN3C(=O)CNC(=O)[C@H](Cc3ccc(O)cc3)NC(=O)[C@H](CC(C)C)NC(=O)[C@H](CC(=O)O)NC(=O)[C@H](CCCCN)NC(=O)[C@@H]3CSSC[C@@H](C(=O)N[C@@H](Cc4ccc(O)cc4)C(=O)N[C@@H](CC(N)=O)C(=O)N[C@@H](CC(N)=O)C(=O)O)NC(=O)[C@H](CCCCN)NC(=O)[C@H](CSSC[C@H](NC(=O)[C@H](CCC(N)=O)NC(=O)[C@H](CCCCN)NC(=O)[C@@H]4CCCN4C(=O)[C@H](CO)NC(=O)[C@H]([C@@H](C)O)NC1=O)C(=O)N[C@@H](CC(C)C)C(=O)N[C@@H](CCCCN)C(=O)N1CCC[C@H]1C(=O)N3)NC(=O)[C@H](CCCCN)NC(=O)CNC(=O)[C@H](CC(N)=O)NC(=O)[C@H](CCSC)NC2=O)C(C)C [Ce1] (H-TVINVKCTSPKQCLKPCKDLYGPHAGAKCMNGKCKCYNN-OH; disulfide 7-29, 13-34, 17-36; N-terminus and C-terminus assumed)",,,0.01 ± 0.002 nM,,much higher activity against the Kv1.2 channel than against the Kv1.1 channel,,,highest picomolar affinity,,,,,11 ± 5 nM,,,,
